The NIST ThermoML archive (doi:10.1021/je100484n)
Numbers after ± are expanded uncertainties.

Key:
[1] = refractive index (Na D-line) (dimensionless); xn = mol fraction of the nth substance listed; details: 101 kPa, Liquid
[2] = xn = mol fraction of the nth substance listed; details: 101 kPa, Liquid

CC(C)(C)O [2-methylpropan-2-ol] + CCCCCCC
Details | mass density, 303.15 K [kg/m3] | mass density, 308.15 K [kg/m3] | mass density, 313.15 K [kg/m3] | mass density, 318.15 K [kg/m3] | mass density, 323.15 K [kg/m3] | refractive index, 303.15 K | refractive index, 308.15 K | refractive index, 313.15 K | refractive index, 318.15 K | refractive index, 323.15 K
[1], x1 = 0.1006 | – | – | – | – | – | 1.3814 ± 0.00063 | 1.37865 ± 0.00063 | 1.37591 ± 0.00063 | 1.37312 ± 0.00063 | 1.37031 ± 0.00063
[1], x1 = 0.1502 | – | – | – | – | – | 1.38092 ± 0.00063 | 1.37816 ± 0.00063 | 1.37539 ± 0.00063 | 1.37258 ± 0.00063 | 1.36973 ± 0.00063
[1], x1 = 0.2 | – | – | – | – | – | 1.38051 ± 0.00063 | 1.37775 ± 0.00063 | 1.37496 ± 0.00063 | 1.37213 ± 0.00063 | 1.36928 ± 0.00063
[1], x1 = 0.3 | – | – | – | – | – | 1.37984 ± 0.00063 | 1.37711 ± 0.00063 | 1.37431 ± 0.00063 | 1.37149 ± 0.00063 | 1.36865 ± 0.00063
[1], x1 = 0.4 | – | – | – | – | – | 1.37936 ± 0.00063 | 1.37667 ± 0.00063 | 1.37387 ± 0.00063 | 1.37108 ± 0.00063 | 1.36828 ± 0.00063
[1], x1 = 0.4998 | – | – | – | – | – | 1.37907 ± 0.00063 | 1.37641 ± 0.00063 | 1.3736 ± 0.00063 | 1.37085 ± 0.00063 | 1.36807 ± 0.00063
[1], x1 = 0.6 | – | – | – | – | – | 1.37899 ± 0.00063 | 1.37633 ± 0.00063 | 1.3735 ± 0.00063 | 1.37079 ± 0.00063 | 1.36801 ± 0.00063
[1], x1 = 0.7 | – | – | – | – | – | 1.37917 ± 0.00062 | 1.37649 ± 0.00062 | 1.37364 ± 0.00062 | 1.37094 ± 0.00062 | 1.36814 ± 0.00062
[1], x1 = 0.7998 | – | – | – | – | – | 1.37969 ± 0.00062 | 1.37697 ± 0.00062 | 1.37411 ± 0.00062 | 1.37139 ± 0.00062 | 1.36855 ± 0.00062
[1], x1 = 0.8479 | – | – | – | – | – | 1.38009 ± 0.00062 | 1.37735 ± 0.00062 | 1.37449 ± 0.00062 | 1.37175 ± 0.00062 | 1.36889 ± 0.00062
[1], x1 = 0.8998 | – | – | – | – | – | 1.38066 ± 0.00062 | 1.37791 ± 0.00062 | 1.37505 ± 0.00062 | 1.37229 ± 0.00062 | 1.36942 ± 0.00062
[1], x1 = 0.9499 | – | – | – | – | – | 1.38136 ± 0.00062 | 1.3786 ± 0.00062 | 1.37577 ± 0.00062 | 1.37297 ± 0.00062 | 1.37009 ± 0.00062
[1], x1 = 1 | – | – | – | – | – | 1.38222 ± 0.00062 | 1.37947 ± 0.00062 | 1.37667 ± 0.00062 | 1.37384 ± 0.00062 | 1.37097 ± 0.00062
[2], x1 = 0.1006 | 679.898 ± 0.65 | 675.406 ± 0.66 | 670.867 ± 0.66 | 666.278 ± 0.67 | 661.645 ± 0.68 | – | – | – | – | –
[2], x1 = 0.1502 | 682.8 ± 0.64 | 678.262 ± 0.65 | 673.669 ± 0.66 | 669.017 ± 0.66 | 664.315 ± 0.67 | – | – | – | – | –
[2], x1 = 0.2 | 685.899 ± 0.64 | 681.327 ± 0.64 | 676.692 ± 0.65 | 671.995 ± 0.66 | 667.235 ± 0.67 | – | – | – | – | –
[2], x1 = 0.3 | 692.705 ± 0.63 | 688.078 ± 0.63 | 683.382 ± 0.64 | 678.612 ± 0.65 | 673.771 ± 0.65 | – | – | – | – | –
[2], x1 = 0.4 | 700.298 ± 0.61 | 695.628 ± 0.62 | 690.882 ± 0.63 | 686.056 ± 0.63 | 681.144 ± 0.64 | – | – | – | – | –
[2], x1 = 0.4998 | 708.705 ± 0.6 | 703.995 ± 0.61 | 699.207 ± 0.61 | 694.329 ± 0.62 | 689.366 ± 0.63 | – | – | – | – | –
[2], x1 = 0.6 | 718.327 ± 0.58 | 713.568 ± 0.59 | 708.726 ± 0.6 | 703.799 ± 0.6 | 698.776 ± 0.61 | – | – | – | – | –
[2], x1 = 0.7 | 729.448 ± 0.56 | 724.603 ± 0.57 | 719.685 ± 0.58 | 714.683 ± 0.59 | 709.587 ± 0.59 | – | – | – | – | –
[2], x1 = 0.7998 | 742.308 ± 0.54 | 737.338 ± 0.55 | 732.305 ± 0.56 | 727.201 ± 0.57 | 721.991 ± 0.57 | – | – | – | – | –
[2], x1 = 0.8479 | 749.34 ± 0.53 | 744.297 ± 0.54 | 739.195 ± 0.55 | 734.015 ± 0.56 | 728.76 ± 0.56 | – | – | – | – | –
[2], x1 = 0.8998 | 757.564 ± 0.52 | 752.448 ± 0.53 | 747.271 ± 0.54 | 742.022 ± 0.54 | 736.693 ± 0.55 | – | – | – | – | –
[2], x1 = 0.9499 | 766.164 ± 0.51 | 760.994 ± 0.51 | 755.749 ± 0.52 | 750.424 ± 0.53 | 745.02 ± 0.54 | – | – | – | – | –
[2], x1 = 1 | 775.412 ± 0.49 | 770.193 ± 0.5 | 764.884 ± 0.51 | 759.488 ± 0.52 | 754.015 ± 0.52 | – | – | – | – | –
